Assay results taken from the CheMixHub viscosity set.
Several values for one entry are separate records, joined by “and”; a condition that tells them apart may be missing. Identical values can stand only once.

C/C=C/C(=O)OCC
101 kPa
Details	viscosity [mPa·s]
293.15 K	0.8184
298.15 K	0.7576
303.15 K	0.7053
313.15 K	0.6154
323.15 K	0.5471

C=CC(=O)OC(C)(C)C
viscosity [mPa·s]
Details	293.15 K	298.15 K	303.15 K	308.15 K	313.15 K	318.15 K
100 kPa	0.9072	0.8309	0.76	0.701	0.6485	0.6034
101 kPa	0.9072	0.8309	0.76	0.701	0.6485	0.6034

CC(=O)[O-].CCCC[N+](CC)(CC)CC
101 kPa
Details	viscosity [mPa·s]
298.2 K	439
313.2 K	306.7

CC(C)OCCO
101.33 kPa
Details	viscosity [mPa·s]
298.15 K	2.106
308.15 K	1.649
318.15 K	1.315

CC(C)c1cc(C(C)C)cc(C(C)C)c1
102 kPa
Details	viscosity [mPa·s]
293.15 K	4.12
303.15 K	3.05
313.15 K	2.35
323.15 K	1.86

CCCCCCBr
101 kPa
Details	viscosity [mPa·s]
298.15 K	0.9475
303.45 K	0.885
313.35 K	0.782

CCCCCCCC(=O)OCC(COC(=O)CCCCCCC)OC(=O)CCCCCCC
101.33 kPa
Details	viscosity [mPa·s]
298 K	19.98
303 K	16.58
308 K	13.79
313 K	11.57

CCCCCCCCN(CCCCCCCC)CCCCCCCC
Details	viscosity
298.15 K, 101.33 kPa	8.325 mPa·s and 8.325 mPa·s
303.15 K, 101 kPa	6.95 mPa·s

CCCCCC[N+]1(C)CCCC1.O=S(=O)([N-]S(=O)(=O)C(F)(F)F)C(F)(F)F
Details	viscosity [mPa·s]
293.15 K, 100 kPa	136.2
295.2 K, 101.3 kPa	119.8
298.15 K, 100 kPa	102.8
300.2 K, 101.3 kPa	96.8
303.15 K, 100 kPa	79.59
305.2 K, 101.3 kPa	79.6
308.15 K, 100 kPa	63.07
310.2 K, 101.3 kPa	64.8
313.15 K, 100 kPa	51.01
313.15 K, 101 kPa	52.7
315.2 K, 101.3 kPa	54.2
320.2 K, 101.3 kPa	45.9

CCCCNCCO
101.33 kPa
Details	viscosity [mPa·s]
293.15 K	19.67
298.15 K	15.39
303.15 K	12.23
308.15 K	9.869
313.15 K	8.07
318.15 K	6.68
323.15 K	5.591

CCCCOCCO
Details	viscosity
293.15 K, 101.3 kPa	3.248 mPa·s
293.15 K, 101.33 kPa	3.26 mPa·s
295.15 K, 101 kPa	3.015 mPa·s
297.15 K, 101 kPa	2.857 mPa·s
298 K, 101.3 kPa	2.786 mPa·s
298.15 K, 100 kPa	2.855 mPa·s
298.15 K, 101.3 kPa	2.834 mPa·s
298.15 K, 101.33 kPa	2.844 mPa·s
298.45 K, 101 kPa	2.825 mPa·s
299.15 K, 101 kPa	2.709 mPa·s
301.15 K, 101 kPa	2.576 mPa·s
303 K, 101.3 kPa	2.403 mPa·s
303.15 K, 101.33 kPa	2.408 mPa·s
305.15 K, 101 kPa	2.327 mPa·s
307.15 K, 101 kPa	2.217 mPa·s
308 K, 101.3 kPa	2.115 mPa·s
308.15 K, 100 kPa	2.274 mPa·s
308.15 K, 101.3 kPa	2.228 mPa·s and 2.204 mPa·s
308.15 K, 101.33 kPa	2.193 mPa·s
309.15 K, 101 kPa	2.118 mPa·s
311.15 K, 101 kPa	2.017 mPa·s
313 K, 101.3 kPa	1.867 mPa·s
313.15 K, 101.3 kPa	1.964 mPa·s
313.15 K, 101.33 kPa	1.97 mPa·s and 1.869 mPa·s
315.15 K, 101 kPa	1.844 mPa·s
317.15 K, 101 kPa	1.764 mPa·s
318 K, 101.3 kPa	1.657 mPa·s
318.15 K, 101 kPa	1.937 mPa·s and 1.938 mPa·s and 1.928 mPa·s
318.15 K, 101.3 kPa	1.759 mPa·s
318.15 K, 101.33 kPa	1.764 mPa·s
319.15 K, 101 kPa	1.688 mPa·s
321.15 K, 101 kPa	1.618 mPa·s
323.15 K, 101 kPa	1.552 mPa·s
323.15 K, 101.3 kPa	1.584 mPa·s
323.15 K, 101.33 kPa	1.588 mPa·s

CCCC[n+]1ccn(C)c1.O=[N+]([O-])[O-]
101 kPa
Details	viscosity [mPa·s]
293.15 K	212.1
298.15 K	158.8
303.15 K	121.2
308.15 K	94.07
313.15 K	74.19
318.15 K	59.38
323.15 K	48.18

CCCC[n+]1ccn(C)c1C.F[B-](F)(F)F
Details	viscosity [mPa·s]
298.15 K, 101 kPa	573

CCNCCO
viscosity [mPa·s]
Details	293.15 K	298.15 K	303.15 K	308.15 K	313.15 K	318.15 K	323.15 K
101 kPa	–	–	9.639	7.83	6.419	5.358	4.517
101.33 kPa	16.27	12.75	10.16	8.223	6.748	5.608	4.714

CCOC(=O)CCl
viscosity
Details	303.15 K	308.15 K
101.3 kPa	1.013 mPa·s and 1.013 mPa·s	0.93 mPa·s and 0.93 mPa·s
101.33 kPa	1.007 mPa·s and 1.007 mPa·s	0.933 mPa·s and 0.933 mPa·s

CCOCCOCCOCC
viscosity [mPa·s]
Details	298.15 K	308.15 K	318.15 K
101 kPa	1.268	–	–
101.33 kPa	1.268	1.048	0.881

CC[N+]1(C)CCCC1.COP(=O)([O-])OC
100 kPa
Details	viscosity [mPa·s]
293.15 K	227.7
298.15 K	169.4
303.15 K	123.5
308.15 K	93.55
313.15 K	72.82
318.15 K	56.38
323.15 K	45.1

CNC=O
viscosity
Details	298.15 K	303 K	303.15 K	308.15 K	313.15 K	318.15 K	323.15 K
101 kPa	1.746 mPa·s	1.475 mPa·s	1.585 mPa·s and 1.597 mPa·s and 1.58 mPa·s	1.462 mPa·s and 1.473 mPa·s and 1.434 mPa·s	1.352 mPa·s and 1.361 mPa·s and 1.306 mPa·s	1.255 mPa·s and 1.263 mPa·s and 1.191 mPa·s	1.175 mPa·s
101.3 kPa	1.695 mPa·s	–	–	–	–	–	–
101.33 kPa	–	–	1.586 mPa·s	1.463 mPa·s	1.352 mPa·s	1.256 mPa·s	1.167 mPa·s

COC(=O)c1ccccc1
viscosity
Details	293.15 K	298.15 K	303.15 K	308.15 K	313.15 K	318.15 K	323.15 K
100 kPa	–	–	–	1.517 mPa·s	1.373 mPa·s	–	–
101 kPa	–	1.823 mPa·s and 1.825 mPa·s	1.656 mPa·s and 1.583 mPa·s	1.501 mPa·s and 1.504 mPa·s	1.359 mPa·s and 1.371 mPa·s	1.282 mPa·s and 1.27 mPa·s	1.222 mPa·s
101.3 kPa	–	1.918 mPa·s	1.778 mPa·s	1.663 mPa·s	1.402 mPa·s	–	–
101.33 kPa	1.879 mPa·s and 2.036 mPa·s	1.836 mPa·s and 1.825 mPa·s and 1.81 mPa·s	1.523 mPa·s and 1.656 mPa·s and 1.638 mPa·s	1.521 mPa·s and 1.491 mPa·s	1.238 mPa·s and 1.398 mPa·s and 1.365 mPa·s	1.253 mPa·s	1.016 mPa·s

C[N+](C)(C)C.[OH-]
100 kPa
Details	viscosity [mPa·s]
298.15 K	2.77
303.15 K	2.71
308.15 K	2.62
313.15 K	2.56

C[N+](C)(C)CCO.O=C([O-])c1ccccn1
Details	viscosity [mPa·s]
300 K, 100 kPa	558.5

C[N+]1(CC2CO2)CCCC1=O.[Cl-] (stereo not given)
101 kPa
Details	viscosity
293.15 K	1.677 mPa·s and 1.623 mPa·s
298.15 K	1.537 mPa·s and 1.489 mPa·s
303.15 K	1.415 mPa·s and 1.373 mPa·s
308.15 K	1.309 mPa·s and 1.27 mPa·s
313.15 K	1.215 mPa·s and 1.18 mPa·s

O=C(OCc1ccccc1)c1ccccc1
Details	viscosity
298.15 K, 101 kPa	8.454 mPa·s and 8.45 mPa·s
313.15 K, 101.33 kPa	5.04 mPa·s

[Cl-].[Cl-].[Cl-].[Cl-].[Ti+4]
101 kPa
Details	viscosity [mPa·s]
293.15 K	0.827
313.15 K	0.702
